Patent US20210255193A1, “LYSINE REACTIVE PROBES AND USES THEREOF” (The Scripps Research Institute, priority 2017, published 2021)

Assays:
Test in all cases: competitive isoTOP-ABPP
Assay type in all cases: binding
[1] = molecular target: T1, NLN Neurolysin, mitochondrial (Homo sapiens, UniProt Q9BYT8); conditions: for isoTOP-ABPP ratio (R) at liganded lysine Q9BYT8_K253: sol, 231; for isoTOP-ABPP ratio, lysine Q9BYT8_K253: 50 uM_231_sol_in vitro
T1 construct: isoTOP-ABPP experiments performed in cell lysates (in vitro); endogenous in cells; host or cells: soluble proteome of human cancer cell lines (MDA-MB-231; Ramos and Jurkat also prepared)
T1 sequence (Q9BYT8 38-704): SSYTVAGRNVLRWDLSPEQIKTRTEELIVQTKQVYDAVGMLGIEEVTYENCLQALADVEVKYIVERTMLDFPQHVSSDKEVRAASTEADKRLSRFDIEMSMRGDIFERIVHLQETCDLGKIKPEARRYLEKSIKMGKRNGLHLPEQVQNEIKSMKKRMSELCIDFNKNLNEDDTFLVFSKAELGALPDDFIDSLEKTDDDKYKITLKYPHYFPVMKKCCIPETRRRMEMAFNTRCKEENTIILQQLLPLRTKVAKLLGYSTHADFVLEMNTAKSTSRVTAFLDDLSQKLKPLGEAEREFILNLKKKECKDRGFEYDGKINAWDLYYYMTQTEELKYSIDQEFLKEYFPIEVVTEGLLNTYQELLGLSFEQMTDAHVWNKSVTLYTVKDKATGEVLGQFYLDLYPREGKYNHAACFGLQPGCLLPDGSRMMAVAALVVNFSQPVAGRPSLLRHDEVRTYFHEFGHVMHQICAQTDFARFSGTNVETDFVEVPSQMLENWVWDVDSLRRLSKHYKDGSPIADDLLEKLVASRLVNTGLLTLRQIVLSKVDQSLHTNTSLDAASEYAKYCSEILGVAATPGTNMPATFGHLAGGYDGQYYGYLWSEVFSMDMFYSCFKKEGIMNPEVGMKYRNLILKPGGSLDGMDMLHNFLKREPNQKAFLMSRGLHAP
Method in brief: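 Lysine engagement is reported as R, the MS1 peak-area ratio of heavy-tagged DMSO to light-tagged compound samples. Final fragment concentrations were 50 μM for activated esters and 100 μM for guanidinylating agents; STP-alkyne probe 0.1 mM, 1 h.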

ADK Adenosine kinase = molecular target: T2, ADK Adenosine kinase (Homo sapiens, UniProt P55263); parameters: key to isoTOP-ABPP reactivity ratio at lysine P55263_K88: R = MS1 peak area ratio, DMSO (heavy) / compound-treated (light); conditions: for isoTOP-ABPP ratio (R) at liganded lysine P55263_K88: sol, 231; for isoTOP-ABPP ratio, lysine P55263_K88: 50 uM_231_sol_in vitro
T2 construct: isoTOP-ABPP experiments performed in cell lysates (in vitro); endogenous in cells; host or cells: soluble proteome of human cancer cell lines (MDA-MB-231, Ramos, Jurkat)
T2 sequence (P55263 whole entry): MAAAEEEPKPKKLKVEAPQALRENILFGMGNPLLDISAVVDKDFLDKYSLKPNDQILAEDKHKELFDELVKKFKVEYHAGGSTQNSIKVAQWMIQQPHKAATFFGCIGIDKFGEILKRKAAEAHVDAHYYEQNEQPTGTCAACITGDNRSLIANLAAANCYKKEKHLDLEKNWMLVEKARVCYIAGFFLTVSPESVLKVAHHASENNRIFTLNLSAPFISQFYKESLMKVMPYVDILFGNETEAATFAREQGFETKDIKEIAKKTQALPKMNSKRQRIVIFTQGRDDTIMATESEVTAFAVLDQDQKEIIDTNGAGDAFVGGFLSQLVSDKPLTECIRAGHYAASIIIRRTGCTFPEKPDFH
Description: (§1) In vitro covalent fragment treatment for isoTOP-ABPP. All compounds were made up as solutions in DMSO (100×) and were used at a final concentration of 50 μM for activated esters and 100 μM for guanidinylating agents. For each profiling sample, 0.5 ml of lysate was treated with 5 μl of the 100× compound stock solution or 5 μl of DMSO. Samples were treated with activated esters for
(§2) STP-alkyne labeling and click chemistry. For concentration-dependent reactivity measurements by isoTOP-ABPP, 0.5 ml proteome aliquots were treated at ambient temperature with 1 mM STP-alkyne 1 (5 μl of 100 mM stock in DMSO) and 0.1 mM STP alkyne 1 (5 μl of 10 mM stock in DMSO), respectively. For competitive isoTOP-ABPP, after in vitro fragment treatment (detailed above), the samples were labeled for 1 h at ambient temperature with 0.1 mM STP-alkyne 1 (5 μl of 10 mM stock in DMSO). Samples were conjugated by copper-mediated azide-alkyne cycloaddition (CuAAC) to either the light (1 mM STP-alkyne or fragment treated) or heavy (0.1 mM STP-alkyne or DMSO treated) TEV tags (10 μl of 5 mM stocks in DMSO, final concentration=100 μM) using tris(2-carboxyethyl)phosphine hydrochloride
(§3) R value calculation and processing. The ratios of light and heavy MS1 peaks for each unique peptide were quantified with a CIMAGE software using default parameters (3 MS1 acquisitions per peak and signal to noise threshold set to 2.5). For reactivity measurements by isoTOP-ABPP, the R value was calculated from the ratio of MS1 peak areas, comparing the 1 mM STP alkyne sample (light TEV tag) with the 0.1 mM STP alkyne sample (heavy TEV tag). For competitive isoTOP-ABPP, the R value was calculated from the ratio of MS1 peak areas, comparing the DMSO treated sample (heavy TEV tag) with the compound treated sample (light TEV tag). […] Ratios for unique peptide entries are calculated for each experiment; overlapping peptides with the same modified lysine (for example, different charge states, MudPIT chromatographic steps or tryptic termini) are grouped together and the median ratio is reported as the final ratio (R). The peptide ratios reported by CIMAGE were further filtered to ensure the removal or correction of low-quality ratios in each individual data set. The quality filters applied were the following: removal of half tryptic peptides; for ratios with high standard deviations from the median (90% of the median or above) the lowest ratio was taken instead of the median; removal of peptides with R=20 and only a single MS2 event triggered during the elution of the parent ion; manual annotation of all the peptides with ratios of 20, removing any peptides with low quality elution profiles that remained after the previous curation steps (only done for competitive isoTOP-ABPP).
(§4) Cross-data processing for fragment screening. For compound treated samples, biological replicates of the same condition were averaged, if the standard deviation was below 60% of the mean; otherwise, for lysines with at least one R value <4 for a particular compound, the lowest value of the ratio set was taken. For lysines, where all R values for a particular compound were ≥4, the average was reported. For peptides containing several possible modified lysines, the lysine with the highest number of quantification events was used for analysis and the remaining, redundant peptides were reported as alternative modification sites. Peptides included in the aggregate dataset (those used for further bioinformatics and statistical analyses) were required to have been quantified in 2 experiments for competitive isoTOP-ABPP. Lysines were categorized as liganded, if they had at least one ratio R≥4 (hit fragments). For liganded lysines with R=20 for all liganding events, lysines were required to have been quantified with R=20 in two separate experiments and were further required to have been quantified with R<20 in one additional experiment.

[2] = molecular target: T3, PFKP 6-phosphofructokinase type C (Homo sapiens, UniProt Q01813); parameters: key to isoTOP-ABPP reactivity ratio at lysine Q01813_K688: R = MS1 peak area ratio, DMSO (heavy) / compound-treated (light); conditions: for isoTOP-ABPP ratio (R) at liganded lysine Q01813_K688: sol, 231; for isoTOP-ABPP ratio, lysine Q01813_K688: 50 uM_231_sol_in vitro
T3 construct: isoTOP-ABPP experiments performed in cell lysates (in vitro); endogenous in cells
T3 sequence (Q01813 1-784): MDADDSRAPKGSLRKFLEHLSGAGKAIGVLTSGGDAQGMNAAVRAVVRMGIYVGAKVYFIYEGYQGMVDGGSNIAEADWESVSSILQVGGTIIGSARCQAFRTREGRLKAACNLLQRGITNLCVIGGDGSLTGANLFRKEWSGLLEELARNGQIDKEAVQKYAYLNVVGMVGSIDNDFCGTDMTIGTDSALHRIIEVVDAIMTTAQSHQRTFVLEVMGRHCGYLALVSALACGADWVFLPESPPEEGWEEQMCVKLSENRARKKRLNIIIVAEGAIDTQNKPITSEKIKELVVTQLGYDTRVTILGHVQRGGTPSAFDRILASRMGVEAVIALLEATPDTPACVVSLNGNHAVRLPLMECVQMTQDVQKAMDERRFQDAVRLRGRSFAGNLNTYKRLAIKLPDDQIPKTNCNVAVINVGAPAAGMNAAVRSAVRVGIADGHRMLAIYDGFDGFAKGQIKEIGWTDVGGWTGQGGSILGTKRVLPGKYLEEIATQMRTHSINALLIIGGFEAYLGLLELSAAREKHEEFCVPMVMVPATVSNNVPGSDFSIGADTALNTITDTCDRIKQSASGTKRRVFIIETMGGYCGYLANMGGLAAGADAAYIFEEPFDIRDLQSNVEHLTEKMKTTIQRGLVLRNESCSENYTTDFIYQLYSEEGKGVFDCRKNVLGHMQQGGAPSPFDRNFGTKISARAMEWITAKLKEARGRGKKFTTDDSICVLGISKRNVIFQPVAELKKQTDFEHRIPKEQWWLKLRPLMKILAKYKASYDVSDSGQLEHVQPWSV
Description: as §1, §2, §3, §4

[3] = molecular target: T4, ISOC2 Isochorismatase domain-containing protein 2, mitochondrial (Homo sapiens, UniProt Q96AB3); parameters: key to isoTOP-ABPP reactivity ratio at lysine Q96AB3_K178: R = MS1 peak area ratio, DMSO (heavy) / compound-treated (light); capped at 20; conditions: for isoTOP-ABPP ratio (R) at liganded lysine Q96AB3_K178: sol, 231; for isoTOP-ABPP ratio, lysine Q96AB3_K178: 50 uM_231_sol_in vitro
T4 construct: isoTOP-ABPP experiments performed in cell lysates (in vitro); endogenous in cells; host or cells: soluble proteome of human cancer cell lines (MDA-MB-231; Ramos and Jurkat also prepared)
T4 sequence (Q96AB3 1-205): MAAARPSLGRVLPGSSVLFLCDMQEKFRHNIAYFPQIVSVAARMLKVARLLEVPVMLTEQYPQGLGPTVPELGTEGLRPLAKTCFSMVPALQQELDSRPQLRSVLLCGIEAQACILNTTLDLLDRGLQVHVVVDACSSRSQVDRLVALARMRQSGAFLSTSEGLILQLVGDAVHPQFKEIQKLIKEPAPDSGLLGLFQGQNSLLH
Description: as §1, §2, §3, §4

SMILES | isoTOP-ABPP reactivity ratio at lysine Q9BYT8_K253 ([1]; 50 uM, 231 sol, in vitro) | isoTOP-ABPP reactivity ratio at lysine P55263_K88 (ADK Adenosine kinase; 50 uM, 231 sol, in vitro) | isoTOP-ABPP reactivity ratio at lysine Q01813_K688 ([2]; 50 uM, 231 sol, in vitro) | isoTOP-ABPP reactivity ratio at lysine Q96AB3_K178 ([3]; 50 uM, 231 sol, in vitro) | isoTOP-ABPP ratio (R) at liganded lysine Q9BYT8_K253 ([1]; 50 uM, in vitro) | isoTOP-ABPP ratio (R) at liganded lysine P55263_K88 (ADK Adenosine kinase; 50 uM, in vitro) | isoTOP-ABPP ratio (R) at liganded lysine Q01813_K688 ([2]; 50 uM, in vitro) | isoTOP-ABPP ratio (R) at liganded lysine Q96AB3_K178 ([3]; 50 uM, in vitro) | other results
COc1cc(CCC(=O)Oc2ccc([N+](=O)[O-])cc2[N+](=O)[O-])cc(OC)c1OC [fragment 33, 2,4-Dinitrophenyl 3-(3,4,5-trimethoxyphenyl)propanoate] | 4.1 | 0.9 | 20.0 | 9.1 |  |  |  |  | 
O=C(Oc1c(F)c(F)c(F)c(F)c1F)C(c1ccccc1)c1ccccc1 [fragment 20, Pentafluorophenyl 2,2-diphenylacetate] |  |  |  |  |  |  |  |  | R value (DMSO/fragment) for probe 1 labeling ([1]; Q9BYT8_K253, 50 uM, 231 sol, in vitro): 0.9; R value (DMSO/fragment) for probe 1 labeling (ADK Adenosine kinase; P55263_K88, 50 uM, 231 sol, in vitro): 0.8; blockade of probe 1 labeling of K688 ([2]; PFKP K688): completely blocked; R value (DMSO/fragment) for probe 1 labeling ([2]; Q01813_K688, 50 uM, 231 sol, in vitro): 20.0; R value (DMSO/fragment) for probe 1 labeling ([3]; Q96AB3_K178, 50 uM, 231 sol, in vitro): 0.9
O=C(Oc1ccc([N+](=O)[O-])cc1[N+](=O)[O-])c1ccc2ccccc2n1 [fragment 35, 2,4-Dinitrophenyl quinoline-2-carboxylate] |  |  |  |  | 1.1 | 0.6 | 3.3 | 1.3 | 
O=C(CCc1ccc2c(c1)OCO2)Oc1ccc([N+](=O)[O-])cc1[N+](=O)[O-] [fragment 45, 2,4-Dinitrophenyl 3-(benzo[d][1,3]dioxol-5-yl)propanoate] |  |  |  |  |  |  |  |  | isoTOP-ABPP ratio, lysine Q9BYT8_K253 [1]: 1.3; isoTOP-ABPP ratio, lysine P55263_K88 (ADK Adenosine kinase): 1.3; isoTOP-ABPP ratio, lysine Q01813_K688 [2]: 20.0; isoTOP-ABPP ratio, lysine Q96AB3_K178 [3]: 1.8
O=C(Oc1ccc([N+](=O)[O-])cc1[N+](=O)[O-])c1ccccc1Nc1cccc(C(F)(F)F)c1 [fragment 40, 2,4-Dinitrophenyl 2-((3-(trifluoromethyl)phenyl)amino)benzoate] |  |  |  |  | 0.9 | 0.9 | 1.0 | 0.9 | 
O=C(ON1C(=O)CCC1=O)c1cc(C(F)(F)F)cc(C(F)(F)F)c1 [fragment 46, 3,5-Bis(trifluoromethyl)benzoic acid NHS ester] |  |  |  |  |  |  |  |  | isoTOP-ABPP ratio, lysine Q9BYT8_K253 [1]: 1.5; isoTOP-ABPP ratio, lysine P55263_K88 (ADK Adenosine kinase): 0.8; isoTOP-ABPP ratio, lysine Q01813_K688 [2]: 1.7; isoTOP-ABPP ratio, lysine Q96AB3_K178 [3]: 1.5
O=C(Oc1ccc([N+](=O)[O-])cc1[N+](=O)[O-])c1ccc(Oc2ccccc2)cc1 [fragment 39, 2,4-Dinitrophenyl 4-phenoxybenzoate] |  |  |  |  | 1.1 | 0.9 | 1.0 | 0.9 | 
O=C(Oc1c(F)c(F)c(F)c(F)c1F)c1ccc2ccccc2n1 [fragment 25, Pentafluorophenyl quinoline-2-carboxylate] | 0.9 | 0.8 | 15.6 | 1.4 |  |  |  |  | 
O=C(Oc1ccc([N+](=O)[O-])cc1[N+](=O)[O-])C(c1ccccc1)c1ccccc1 [fragment 30, 2,4-Dinitrophenyl 2,2-diphenylacetate] | 1.3 | 0.8 | 20.0 | 1.0 |  |  |  |  | 
O=C(Oc1ccc([N+](=O)[O-])cc1[N+](=O)[O-])c1cc(C(F)(F)F)cc(C(F)(F)F)c1 [fragment 31, 2,4-Dinitrophenyl 3,5-bis(trifluoromethyl)benzoate] | 1.5 | 0.7 | 2.3 | 2.1 |  |  |  |  | 
CC(=O)Oc1ccc([N+](=O)[O-])cc1[N+](=O)[O-] [fragment 43, 2,4-Dinitrophenyl acetate] |  |  |  |  | 0.8 | 0.9 | 3.9 | 1.1 | 
